Reference: patent US20100055099A1, “Diagnostics and Treatments for VEGF-Independent Tumors” (priority 2008, published 2010)

What was measured:
[1] = test system: primary epithelial cells from PyMT.epiVEGF−/− tumors; assay: Cell migration assay, response to HGF; type: cell-based, mouse; conditions: HGF 40 ng/ml, 18 hours, primary tumors from PyMT.epiVEGF−/− mice
Text: (§1) Primary epithelial cells, designated as K0.1, K0.2, K0.3 and K0.4, were isolated from PyMT.epiVEGF−/− tumors. Primary epithelial cells, designated as WT. 1, WT.2, WT.3, WT.4 and WT.5, were isolated from in PyMT.epiVEGF+/+ tumors. WT.c is epithelial cells from a cell line created from PyMT.VEGF+/+.loxP tumor. KO.c is epithelial cells from a cell line created from PyMT.VEGF+/+.loxP tumors wherein VEGF was knocked out by Adenovirus expressing Cre-recombinase (Adeno-Cre) infection in vitro. Epithelial-specific Cre-loxP recombination was confirmed through immunocytochemistry with anti-Cre recombinase antibody. VEGF expression level was not detectable in Ko.c cell lines by ELISA.
(§2) Migration assays were performed using BD Falcon™ FluoroBlok™ 24-Multiwell Insert System, 8 um pore size (BD Biosciences, Bedford, Mass.). The plates were coated with 5 ug/ml Fibronectin (Sigma) for 2 hours at 37° C. Cells in 300 μl assay medium (0.5% FBS, DMEM/F12) were added to the upper chamber. HGF 40 ng/ml in 750 ul assay medium was added to the lower chamber, and cells were incubated at 37° C. for 18 hours. Cells on the lower surface were fixed in MeOH and stained with YO-PRO-1 (Molecular Probes, Eugene, Oreg.). Images were acquired and analyzed using the ImageXpress Micro platform (MDS Analytical; Sunnyvale, Calif.). The Count Nuclei application in Metamorph was used to identify and count migrated cells.

[2] = test system: WT.c cell line; assay: Cell migration assay, response to HGF; type: cell-based, mouse; conditions: HGF 40 ng/ml, 18 hours, WT.c cells
Text: as §1, §2

[3] = test system: primary epithelial cells from PyMT.epiVEGF+/+ tumors; assay: Cell migration assay, response to HGF; type: cell-based, mouse; conditions: HGF 40 ng/ml, 18 hours, primary tumors from PyMT.epiVEGF+/+ mice
Text: as §1, §2

[4] = test system: KO.c cell line; assay: Cell migration assay, response to HGF; type: cell-based, mouse; conditions: HGF 40 ng/ml, 18 hours, KO.c cells
Text: as §1, §2

[5] = test system: xenograft models; conditions: most xenograft models tested; cited from earlier work

Substance | average increase in migratory response to HGF [1] | fold increase in migration with HGF treatment [2] | average increase in migratory response to HGF [3] | fold increase in migration with HGF treatment [4] | tumor angiogenesis [5] | tumor growth [5]
HGF: hepatocyte growth factor, added at 40 ng/ml to the lower chamber in the migration assay | 2.5 fold | 1.5 fold | 1.8 fold | 2.3 fold |  | 
bevacizumab: humanized anti-VEGF monoclonal antibody |  |  |  |  | reduced | significantly inhibited
